Patent US11512097B2, “Heterocyclic compounds as Delta-5 desaturase inhibitors and methods of use” (Amgen Inc., priority 2019, dated 2022)

Target: T1, Delta-5-Desaturase (D5D), membrane preparations of D5D-overexpressing HEK293 6E cells (Homo sapiens, UniProt O60427)
T1 construct: expressed in transfected cells; host or cells: HEK293 6E cells (membrane preparation)
Assay: In vitro measurement of Delta-5-Desaturase inhibitory activity using DGLA-CoA and Arachidonyl-CoA mass spectrometric assays
Assay type: biochemical
Details: D5D membrane 10 μg/mL, one-hour incubation, average of at least two independent runs
Method in brief: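 Substrate mix (0.01 mM DGLA with NADH, ATP, coenzyme A) was incubated 1 h at room temperature with HEK293 6E D5D membranes at 10 μg/mL final, pH 7.5. Negative-mode SPE-MS/MS monitored DGLA-CoA (m/z 526.6) and arachidonyl-CoA (m/z 525.6). Inhibition normalised to DMSO and no-enzyme wells gave IC50s, mean of ≥2 runs.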

T1 sequence (O60427 whole entry, species assumed): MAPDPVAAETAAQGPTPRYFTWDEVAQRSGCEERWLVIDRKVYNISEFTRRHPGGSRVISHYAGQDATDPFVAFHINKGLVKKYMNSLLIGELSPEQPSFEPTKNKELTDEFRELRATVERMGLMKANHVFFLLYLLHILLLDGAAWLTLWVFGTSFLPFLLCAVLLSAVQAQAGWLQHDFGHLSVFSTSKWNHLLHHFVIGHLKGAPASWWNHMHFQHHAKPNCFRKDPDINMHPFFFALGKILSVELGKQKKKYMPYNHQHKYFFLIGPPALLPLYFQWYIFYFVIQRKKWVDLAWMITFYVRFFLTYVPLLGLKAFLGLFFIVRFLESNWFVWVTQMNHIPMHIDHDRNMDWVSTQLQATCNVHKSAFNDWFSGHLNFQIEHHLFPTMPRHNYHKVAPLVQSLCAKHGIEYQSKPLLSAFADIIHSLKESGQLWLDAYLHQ

IC50: 0.0196 µM
Structure (SMILES): Cc1nn2c(=O)c(-c3cnn(CC(F)(F)C(F)(F)F)c3)c(C(F)(F)F)nc2s1 [Example 2, 2-methyl-6-[1-(2,2,3,3,3-pentafluoropropyl)-1H-pyrazol-4-yl]-7-(trifluoromethyl)-5H-[1,3,4]thiadiazolo[3,2-a]pyrimidin-5-one]
